Test results published in paper PMC10511043 (Cell Structure and Function, 2020).

Biological target: LCMV Z protein (Zabton-3 / Zabton FRET biosensor, trimeric tandem Z) (Lymphocytic choriomeningitis virus (strain Armstrong), UniProt P18541)
Sequence (P18541 whole entry, looked up): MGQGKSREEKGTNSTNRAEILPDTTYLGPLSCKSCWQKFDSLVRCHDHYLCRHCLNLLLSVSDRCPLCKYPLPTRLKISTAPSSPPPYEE

## Nc1nc(N)c2c3c(sc2n1)CN(Cc1ccccc1)CC3 [#4, 5,6,7,8-tetrahydro-7-(benzyl)-pyrido[4',3':4,5]thieno[2,3-d]pyrimidin-2,4-diamine]
  decrease of FRET/CFP emission ratio: both of them decreased the FRET ratio in a concentration-dependent manner
